Test results as given in patent publication US20070009495A1, “Method for treating or preventing systemic inflammation in formula-fed infants” (priority 2005, published 2007).

Experiments:
Format in all cases: in vivo, Sprague-Dawley infant rats
[1] = Growth (body weight) of gastrostomy-fed, LPS-treated rat pups; details: LGG 1×10^8 cfu/L/kg/day
Source text: (§1) This example describes the materials and methods necessary to show the effect of LGG on formula-fed neonatal rat pups. In two separate experiments, ten Sprague-Dawley (Taconic, Germantown, N.Y.) infant rats were randomly assigned to two gastrostomy feeding groups with five rats per group. Gastrostomy feeding, using the rat infant “pup-in-the-cup” model, began on day 7 of life of the rat pups. The gastrostomy feeding tubes were constructed from 14-cm sections of polyethylene tubing that were inserted into the stomach of the pups. This is a commonly used model in studies of developmental nutrition when it is important to manipulate nutritional composition in the absence of maternal feedings. The gastrostomy placement was done under isoflurane anesthesia. […]
(§2) During a 2-day acclimation period, the gastrostomy-fed rat pups were fed with rat milk substitute (RMS). […] All of the gastrostomy-fed groups received the same quantity of fat and carbohydrates.
(§3) Lipopolysaccharide (LPS) from Escherichia coli 0127:B8 (LPS; Sigma, St. Louis, Mo.) was dissolved in water by vortexing at a concentration of 2 mg/ml. […] This dose was determined in pilot studies to result in occasional shivering, piloerection, and poor weight gain but was not associated with a significant increase in mortality over a 6-day period. […]

ileum intestinal mucosa = experiment: Intestinal morphology of ileum (H&E stain) in LPS-treated rat pups
Source text: as §1, §2, §3

CINC-1 = CINC-1 peptide production by ELISA in rat pup tissues
Source text: This example describes the materials and methods necessary to show the effect of LGG on formula-fed neonatal rat pups. In two separate experiments, ten Sprague-Dawley (Taconic, Germantown, N.Y.) infant rats were randomly assigned to two gastrostomy feeding groups with five rats per group. Gastrostomy feeding, using the rat infant “pup-in-the-cup” model, began on day 7 of life of the rat pups. The gastrostomy feeding tubes were constructed from 14-cm sections of polyethylene tubing that were inserted into the stomach of the pups. This is a commonly used model in studies of developmental nutrition when it is important to manipulate nutritional composition in the absence of maternal feedings. The gastrostomy placement was done under isoflurane anesthesia. Timer-controlled syringe pumps were connected to the feeding tubes and were set to feed the rats for the first 20 minutes of every hour at a weight-dependent flow rate. Five mother-reared rats of the same age were used as reference controls.
During a 2-day acclimation period, the gastrostomy-fed rat pups were fed with rat milk substitute (RMS). The protein component of the RMS was between 30 and 40 g/kg/day, which is similar to that of mother's milk and is required for normal growth. One of the RMS fed groups was also given a supplement of 1×10^8 cfu/L/kg/day LGG. The other group was fed RMS alone, without LGG supplementation. All of the gastrostomy-fed groups received the same quantity of fat and carbohydrates.
Lipopolysaccharide (LPS) from Escherichia coli 0127:B8 (LPS; Sigma, St. Louis, Mo.) was dissolved in water by vortexing at a concentration of 2 mg/ml. The gastrostomy-fed rats were given between 0.25 and 0.5 mg/kg/day of LPS via the gastrostomy tube starting 2 days after the initiation of artificial feeding. The pups were given LPS supplementation for 6 days. This dose was determined in pilot studies to result in occasional shivering, piloerection, and poor weight gain but was not associated with a significant increase in mortality over a 6-day period.
At the end of the 6-day treatment period, the rat pups were euthanized with an overdose of pentobarbital sodium. The small intestine was removed and separated into three parts: the ileum, jejunum, and duodenum, stored at −80° C. for enzyme assays and ELISA, or fixed in 10% neutral buffered formalin for intestinal morphology. Lung, liver and plasma were stored at −80° C. for enzyme assays and ELISA.
This example illustrates the effect of LGG on CINC-1. Small intestine and plasma CINC-1 levels were determined by TiterZyme Enzyme Immunometric Assay kits for rat growth-related oncogene/CINC-1 (Assay Designs, Ann Arbor, Mich.). Absorbance was determined at 450 nm, and concentration was calculated using the equation derived from a linear standard curve.
To further investigate the effects of the diets on CINC-1 peptide, CINC-1 production was evaluated by ELISA in the small intestine, liver, lung and plasma. In an initial experiment, LPS administration to rat pups caused an approximate 4-fold elevation in CINC-1 over non-LPS treated pups fed by gastrostomy (data not shown). […] In the liver and plasma, LGG supplementation reduced CINC-1 levels to a level which was very similar to that of mother's milk-fed rat pups.

TNF-α [2] = experiment: TNF-α production by ELISA in plasma and lung of rat pups
Source text: (§4) This example describes the materials and methods necessary to show the effect of LGG on formula-fed neonatal rat pups. In two separate experiments, ten Sprague-Dawley (Taconic, Germantown, N.Y.) infant rats were randomly assigned to two gastrostomy feeding groups with five rats per group. Gastrostomy feeding, using the rat infant “pup-in-the-cup” model, began on day 7 of life of the rat pups. The gastrostomy feeding tubes were constructed from 14-cm sections of polyethylene tubing that were inserted into the stomach of the pups. This is a commonly used model in studies of developmental nutrition when it is important to manipulate nutritional composition in the absence of maternal feedings. […]
as §2, §3
To further investigate the effects of the diets on TNF-α, TNF-α production was evaluated by ELISA in the plasma and lung. […]

MPO = MPO activity in distal small intestine and lung of rat pups
Source text: as §4, §2, §3
This example illustrates the effect of LGG on MPO levels. […] MPO concentration of the supernatant was measured by the H2O2-dependent oxidation of tetramethylbenzidine. […]

IL-1β = experiment: Multiplex bead cytokine assay, IL-1β
Source text: as §4, §2, §3
(§5) To further investigate the effects of LPS and LGG on cytokines, 14 cytokines/chemokines from lung, liver, plasma and distal small intestine were analyzed. […]

IL-6 = experiment: Multiplex bead cytokine assay, IL-6
Source text: as §4, §2, §3, §5

IL-10 = experiment: Multiplex bead cytokine assay, IL-10
Source text: as §4, §2, §3, §5

IL-18 = experiment: Multiplex bead cytokine assay, IL-18
Source text: as §4, §2, §3, §5

GRO/KC (rat CINC-1) = experiment: Multiplex bead cytokine assay, GRO/KC
Source text: as §4, §2, §3, §5

TNF-α [3] = experiment: Multiplex bead cytokine assay, TNF-α
Source text: as §4, §2, §3, §5

[4] = test system: cytokine/chemokine levels; experiment: Multiplex bead cytokine assay, liver cytokine/chemokine levels
Source text: as §4, §2, §3, §5

Substance: Lactobacillus rhamnosus GG [LGG]
- weight gain [1]: did not improve weight gain
- ileum histological features (metaplasia, lymphoplasmacytic infiltrate, thinning of muscularis mucosa, regenerative crypt changes) (ileum intestinal mucosa; LPS plus LGG group vs LPS group): attenuated
- physical damage in the intestinal mucosa (ileum intestinal mucosa; LPS/LGG group vs mother's milk-fed rat pups): reduced to a level similar to that of mother's milk-fed rat pups
- liver CINC-1 concentration (CINC-1; liver, LPS/LGG vs LPS): significantly attenuated
- lung CINC-1 (CINC-1; lung, LPS/LGG vs LPS): significantly attenuated
- plasma CINC-1 concentration (CINC-1; plasma, LPS/LGG vs LPS): significantly attenuated
- intestinal CINC-1 levels (CINC-1; small intestine, LPS vs LPS/LGG vs mother-fed): did not differ significantly among the 3 groups
- LPS induced elevation of TNF-α, lung (TNF-α [2]; lung): significantly blunted
- LPS induced elevation of TNF-α, plasma (TNF-α [2]; plasma): significantly blunted
- LPS induced elevation of MPO, distal small intestine (MPO; distal small intestine): significantly blunted
- LPS induced elevation of MPO, lung (MPO; lung): significantly blunted
- LPS induced elevation of IL-1β, lung (IL-1β; lung): significantly blunted
- LPS induced elevation of IL-1β, plasma (IL-1β; plasma): significantly blunted
- LPS induced elevation of IL-6, lung (IL-6; lung): significantly blunted
- LPS induced elevation of IL-6, plasma (IL-6; plasma): significantly blunted
- LPS induced elevation of IL-10, lung (IL-10): significantly blunted
- LPS induced elevation of IL-18, lung (IL-18; lung): significantly blunted
- LPS induced elevation of IL-18, plasma (IL-18; plasma): significantly blunted
- LPS induced elevation of GRO/KC (rat CINC-1), lung (GRO/KC (rat CINC-1); lung): significantly blunted
- LPS induced elevation of GRO/KC (rat CINC-1), plasma (GRO/KC (rat CINC-1); plasma): significantly blunted
- LPS induced elevation of TNF-α, lung (TNF-α [3]): significantly blunted
- LPS induced increase of cytokine/chemokine levels in the liver [4]: blunted

Substance: Lipopolysaccharide (LPS) from Escherichia coli 0127:B8 [reference compound]
- elevation in CINC-1 (CINC-1; initial experiment, over non-LPS treated pups fed by gastrostomy (data not shown)): approximately 4 fold
- liver CINC-1 concentration, fold as high (CINC-1; liver, LPS treated group that did not receive LGG): ~2 fold
- lung CINC-1 elevation (CINC-1; lung, LPS treatment compared to mother-fed controls): approximately 4 fold
- plasma CINC-1 concentration, fold as high (CINC-1; plasma, LPS treated group that did not receive LGG): ~2 fold
